For experiment [1], the target named is T1, Sphingosine 1-phosphate receptor 4 (Homo sapiens, UniProt O95977).
T1 sequence (O95977 whole entry): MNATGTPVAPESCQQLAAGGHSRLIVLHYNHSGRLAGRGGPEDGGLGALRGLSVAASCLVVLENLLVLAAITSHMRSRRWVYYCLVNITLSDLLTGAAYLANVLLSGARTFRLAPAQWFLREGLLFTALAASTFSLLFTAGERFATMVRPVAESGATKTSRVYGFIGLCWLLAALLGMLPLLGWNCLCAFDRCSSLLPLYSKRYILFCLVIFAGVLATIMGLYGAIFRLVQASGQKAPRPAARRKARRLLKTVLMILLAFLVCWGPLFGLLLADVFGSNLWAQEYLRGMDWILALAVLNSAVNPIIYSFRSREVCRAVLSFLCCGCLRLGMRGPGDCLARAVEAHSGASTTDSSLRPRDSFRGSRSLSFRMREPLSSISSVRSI
Description: Late-stage fluorescence dose response cell-based assay to identify agonists of the Sphingosine 1-Phosphate Receptor 4 (S1P4): purchased compounds EC50. [Related pubchem assays (depositor defined):AID1509, AID1523, AID1563, AID1686, AID1701, AID1801]. The class given is functional.

Experiment [2] addresses DNA dC->dU-editing enzyme APOBEC-3A (Homo sapiens, UniProt P31941). Nature of the experiment: Dose Response confirmation of small molecule APOBEC3A DNA Deaminase Inhibitors via a fluorescence-based single-stranded DNA deaminase assay. [Related pubchem assays (depositor defined):AID493011, AID493024]. The class given is functional.
The target of experiment [3] is DNA dC->dU-editing enzyme APOBEC-3G (Homo sapiens, UniProt Q9HC16). The class given is functional.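 Also: Dose-response counterscreen measuring inhibition of APOBEC3G DNA deaminase activity, run while confirming APOBEC3A inhibitors.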
Experiment [4] relates to HEK293. Description: cells. The class given is functional, cell-based. The note with it: Homo sapiens.
Experiment [5] relates to HEK293. Nature of the experiment: cells. The note with it: Homo sapiens. The class given is functional, cell-based. The source holds these as a separate data set.
Experiment [6] relates to HEK293. Nature of the experiment: cells. The class given is functional, cell-based. Conditions: Homo sapiens. The source holds these as a separate data set.
Experiment [7] deals with HEK293. Description: inhibition of NOD1-driven NF-kB reporter – cell-based, luminescence, uHTS, primary screen (AID 1578). The class given is functional. The note with it: Homo sapiens.
Experiment [8] deals with T2, Nucleotide-binding oligomerization domain-containing protein 2 (Homo sapiens, UniProt Q9HC29). Description: inhibition of NOD2 signaling – set 2, SAR follow-up (AID 2475). The class given is functional.
Experiment [9] addresses T2, Nucleotide-binding oligomerization domain-containing protein 2. Description: inhibition of NOD2-driven NF-kB reporter – cell-based, luminescence, uHTS, HEK293 (AID 1566). The class given is functional.
Experiment [10] concerns the target T3, Nucleotide-binding oligomerization domain-containing protein 1 (Homo sapiens, UniProt Q9Y239).
T3 sequence (Q9Y239 whole entry): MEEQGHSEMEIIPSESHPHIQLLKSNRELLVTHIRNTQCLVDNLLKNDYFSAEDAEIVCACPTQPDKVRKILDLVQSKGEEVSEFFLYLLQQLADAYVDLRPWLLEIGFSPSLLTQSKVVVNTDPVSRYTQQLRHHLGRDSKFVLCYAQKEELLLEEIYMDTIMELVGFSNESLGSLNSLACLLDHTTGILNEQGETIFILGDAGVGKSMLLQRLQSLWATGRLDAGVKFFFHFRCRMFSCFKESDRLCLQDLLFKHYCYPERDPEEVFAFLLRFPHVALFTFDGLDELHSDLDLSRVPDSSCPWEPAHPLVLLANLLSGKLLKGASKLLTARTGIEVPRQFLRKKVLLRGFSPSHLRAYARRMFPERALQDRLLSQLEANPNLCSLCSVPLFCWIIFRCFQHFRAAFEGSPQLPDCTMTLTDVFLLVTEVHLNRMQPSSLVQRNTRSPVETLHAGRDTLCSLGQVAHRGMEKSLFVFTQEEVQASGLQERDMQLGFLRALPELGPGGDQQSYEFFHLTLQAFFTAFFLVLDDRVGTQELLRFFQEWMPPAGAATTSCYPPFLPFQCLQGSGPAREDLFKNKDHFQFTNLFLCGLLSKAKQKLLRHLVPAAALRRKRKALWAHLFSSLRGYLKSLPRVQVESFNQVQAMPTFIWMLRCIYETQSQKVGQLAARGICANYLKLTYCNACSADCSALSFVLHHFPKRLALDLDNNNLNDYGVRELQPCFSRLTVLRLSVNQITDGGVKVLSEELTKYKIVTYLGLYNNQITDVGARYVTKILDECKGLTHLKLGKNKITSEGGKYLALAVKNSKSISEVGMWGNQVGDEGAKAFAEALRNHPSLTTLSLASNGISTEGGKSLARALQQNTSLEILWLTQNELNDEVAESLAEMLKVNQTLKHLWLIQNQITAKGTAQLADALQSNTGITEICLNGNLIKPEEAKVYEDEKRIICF
Nature of the experiment: blockers of NOD1 pathway activity – revised, SAR follow-up (AID 2333). The class given is functional.

Experiment [11] concerns the target T3, Nucleotide-binding oligomerization domain-containing protein 1. Nature of the experiment: SAR analysis of compounds that inhibit NOD1 - Set 2. [Related pubchem assays (depositor defined):AID1566, AID1575, AID1578, AID1849, AID1852, AID2333, AID2335, AID2798]. The class given is functional.
For experiment [12], the system named is HEK293. Nature of the experiment: NOD2 signaling inhibitors in MDP-stimulated cells, cell-based, uHTS, luminescence (AID 2001). The class given is functional. Conditions: Homo sapiens.
Experiment [13] has as its target T2, Nucleotide-binding oligomerization domain-containing protein 2. Nature of the experiment: PubChem AID 2334. The class given is functional.
Experiment [14] deals with T4, Tumor necrosis factor (Homo sapiens, UniProt P01375). Description: analog potency on TNFa NF-kB signaling – cell-based, set 2, SAR follow-up (AID 2483). The class given is functional.
In experiment [15] the target is T4, Tumor necrosis factor. Description: analog potency on TNFa NF-kB signaling – cell-based, revised, SAR follow-up (AID 2337). The class given is functional.
Experiment [16] relates to HEK293. Nature of the experiment: cells. The note with it: Homo sapiens.
Experiment [17] deals with HEK293. Nature of the experiment: SAR analysis of compounds that are cytotoxic to HEK293 - Set 2. [Related pubchem assays (depositor defined):AID1575, AID1578, AID1849, AID2001, AID2333, AID2334, AID2335, AID2337, AID2800]. The class given is functional, cell-based. The note with it: Homo sapiens.
Experiment [18] has as its target Eukaryotic translation initiation factor 4E (Mus musculus, UniProt P63073). Nature of the experiment: blockers of eIF4G binding by eIF4E – biochemical, TR-FRET, dose response (AID 855).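 Also: potency for disrupting eIF4E binding to eIF4GI seen as loss of FRET.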 The class given is functional. (In general: In TR-FRET formats the signal depends on donor and acceptor labels being close together.)
In experiment [19] the target is T5, Rac GTPase-activating protein 1 (Homo sapiens, UniProt Q9H0H5).
T5 sequence (Q9H0H5 whole entry): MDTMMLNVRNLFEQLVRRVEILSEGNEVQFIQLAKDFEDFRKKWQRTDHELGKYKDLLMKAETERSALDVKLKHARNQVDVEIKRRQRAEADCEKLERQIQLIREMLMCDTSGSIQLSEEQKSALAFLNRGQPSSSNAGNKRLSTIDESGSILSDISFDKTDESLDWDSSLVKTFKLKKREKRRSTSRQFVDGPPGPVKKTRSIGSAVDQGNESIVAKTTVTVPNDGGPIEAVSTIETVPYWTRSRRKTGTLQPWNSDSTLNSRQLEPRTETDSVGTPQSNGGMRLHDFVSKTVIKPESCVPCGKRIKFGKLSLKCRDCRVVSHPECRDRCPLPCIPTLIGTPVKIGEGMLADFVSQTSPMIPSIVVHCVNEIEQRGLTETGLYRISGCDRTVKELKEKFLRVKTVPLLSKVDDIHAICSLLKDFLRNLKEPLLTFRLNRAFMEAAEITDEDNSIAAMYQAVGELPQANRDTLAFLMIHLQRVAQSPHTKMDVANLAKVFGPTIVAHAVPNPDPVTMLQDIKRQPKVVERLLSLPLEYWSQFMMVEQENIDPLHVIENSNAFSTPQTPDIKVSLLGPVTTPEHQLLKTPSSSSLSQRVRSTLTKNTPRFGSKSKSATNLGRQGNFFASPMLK
Nature of the experiment: blockers of MgcRacGAP-driven Rac1 GTP hydrolysis – biochemical, ADP Hunter fluorescence, primary and confirmatory, confirmation (AID 624330). The class given is functional.

Experiment [20] is described as follows: viability loss in HeLa cells – cytotoxicity control for MgcRacGAP inhibitor project, dose response (AID 624300). The class given is functional.
Experiment [21] concerns the target Troponin, cardiac muscle (Homo sapiens, UniProt P19429+P45379+P63316). Nature of the experiment: Fluorescence-based biochemical high throughput dose response assay for activators of the calcium sensitivity of cardiac Regulated Thin Filaments (RTF). [Related pubchem assays (depositor defined):AID493008, AID493018, AID504382, AID504383]. The class given is protein-complex assay.

Experiment [22] deals with Ion channel NompC (Danio rerio, UniProt Q7T1G6). Description: Dose response cell-based high-throughput screening assay for agonists of the transient receptor potential channel N1 (TRPN1). [Related pubchem assays (depositor defined):AID1424, AID1448]. The class given is functional.
Experiment [23] deals with T6, Mucolipin-3 (Homo sapiens, UniProt Q8TDD5).
T6 sequence (Q8TDD5 whole entry): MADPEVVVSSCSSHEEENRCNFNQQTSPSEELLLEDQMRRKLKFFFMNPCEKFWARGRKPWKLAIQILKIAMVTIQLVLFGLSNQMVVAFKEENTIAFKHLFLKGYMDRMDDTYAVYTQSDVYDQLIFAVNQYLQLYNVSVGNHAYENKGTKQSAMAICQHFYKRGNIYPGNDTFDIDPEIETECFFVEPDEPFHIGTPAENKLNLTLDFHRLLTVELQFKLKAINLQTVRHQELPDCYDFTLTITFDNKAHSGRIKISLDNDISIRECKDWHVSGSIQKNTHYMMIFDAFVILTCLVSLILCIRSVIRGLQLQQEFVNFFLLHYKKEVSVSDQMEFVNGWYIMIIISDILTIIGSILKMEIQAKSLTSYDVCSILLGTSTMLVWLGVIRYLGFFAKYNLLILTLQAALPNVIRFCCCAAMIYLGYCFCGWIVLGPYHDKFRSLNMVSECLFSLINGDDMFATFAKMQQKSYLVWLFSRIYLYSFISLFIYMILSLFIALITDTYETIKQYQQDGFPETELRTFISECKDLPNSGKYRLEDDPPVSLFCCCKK
Description: Fluorescence counterscreen assay for […] agonists: dose response cell-based high-throughput screening assay to identify agonists of the transient receptor potential channel ML3 (TRPML3). [Related pubchem assays: 1424, 1448 ]. The class given is functional. On the technique in general: Counterscreens check selectivity or assay interference.

The source made the active and inactive calls. A value given as a limit tells only on which side of the number the result lay.

`Cc1ccc(OCc2ccc(Cl)c(Cl)c2)c([N+](=O)[O-])n1`: in experiment [1], the EC50 (in general, the concentration that produces a half-maximal response) was > 50 µM (inactive).
As to `O=C(CNC(=O)OCc1ccccc1)Nc1ccc(F)cc1`, the half-maximal inhibitory concentration (IC50) (in general, the concentration that gives 50% inhibition) was 3.04 µM (active) in experiment [2] and 5.01 µM (active) in experiment [3].
`Cc1cc(SCC(=O)OC/C(O)=C(\C#N)c2nc3ccccc3[nH]2)c(C)cc1Br`: the IC50 is > 20 µM (inactive) in experiment [4]; > 20 µM (inactive) in experiment [5]; 18.9 µM (active) in [6]; 5.19 µM (active) in experiment [8]; > 20 µM (inactive) in experiment [10]; 5.95 µM (active) in experiment [11]. Also, the IC50 was 5.41 µM (inactive) in [12]; > 20 µM (inactive) in experiment [13]; > 20 µM (inactive) in [14]; > 20 µM (inactive) in experiment [15]; > 20 µM (inactive) in experiment [16]; > 20 µM (inactive) in experiment [17]. Moreover, the EC50 in [7] and in experiment [9] was > 20 µM (inactive) each time.
Regarding `COc1cc(/C=C(\C#N)c2nc3ccccc3[nH]2)cc(OC)c1O`, the IC50 was 50 µM (inactive) in [18] and 20 µM (active) in experiment [19]. Also, in experiment [20], the CC50 (in general, the concentration giving 50% cytotoxicity) was 100 µM (active). Further, the EC50 in experiment [21] was 4.89 µM (active); in experiment [22] it was 3.62 µM (active); in [23], 8.88 µM (active).

Source of the values: ChEMBL document CHEMBL1201862, “PubChem BioAssay data set” (2004).
